Target: PARP7 (Homo sapiens (Human), UniProt Q7Z3E1)
Assay: Enzymatic assay for inhibition of PARP7: TR-FRET displacement of biotinylated Probe A from the TIPARP active site
Assay type: binding
Conditions: Table A-1
Method in brief: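 Titrated compounds compete with the biotinylated probe; after an additional 30 min incubation at 25° C, time-delayed fluorescence (90 μs) is measured. Inhibition curves use a Hill coefficient that normally floats but may be held at 1.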

Sequence of PARP7 (Q7Z3E1 whole entry): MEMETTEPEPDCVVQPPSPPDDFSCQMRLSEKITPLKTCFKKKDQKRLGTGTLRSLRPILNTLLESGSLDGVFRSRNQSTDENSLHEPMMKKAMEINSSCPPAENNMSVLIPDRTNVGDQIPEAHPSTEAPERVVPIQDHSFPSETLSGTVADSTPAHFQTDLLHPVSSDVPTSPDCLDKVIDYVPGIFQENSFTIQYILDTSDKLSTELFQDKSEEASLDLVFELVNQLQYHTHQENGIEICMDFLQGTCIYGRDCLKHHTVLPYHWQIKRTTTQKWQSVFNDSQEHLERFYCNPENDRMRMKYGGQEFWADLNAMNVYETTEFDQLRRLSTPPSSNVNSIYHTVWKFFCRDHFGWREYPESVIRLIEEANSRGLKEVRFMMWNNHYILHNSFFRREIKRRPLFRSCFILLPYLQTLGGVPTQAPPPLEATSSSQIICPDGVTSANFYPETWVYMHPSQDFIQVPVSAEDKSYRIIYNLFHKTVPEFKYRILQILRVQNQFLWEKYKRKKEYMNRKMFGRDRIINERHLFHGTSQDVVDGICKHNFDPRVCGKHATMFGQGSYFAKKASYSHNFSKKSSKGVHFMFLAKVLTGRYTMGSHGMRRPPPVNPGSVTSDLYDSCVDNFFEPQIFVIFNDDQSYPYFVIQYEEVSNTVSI

| SMILES | IC50 [nM] |
| --- | --- |
| Cc1c(OCCOCCC(=O)N2CCN(c3ccc(C#N)cn3)CC2)cn[nH]c1=O [Example 551, 6-[4-(3-[2-[(5-Methyl-6-oxo-1,6-dihydropyridazin-4-yl)oxy]ethoxy]propanoyl)piperazin-1-yl]pyridine-3-carbonitrile] | < 100 |
| CNCc1cccc2c1CN(c1cn[nH]c(=O)c1C(F)(F)F)C2 [Example 262, 5-(4-((Methylamino)methyl)isoindolin-2-yl)-4-(trifluoromethyl)pyridazin-3(2H)-one] | ≥ 1000 |
| O=C(C[C@@H]1CC[C@@H](COc2cn[nH]c(=O)c2C(F)(F)F)O1)N1CCN(c2ncc(Cl)cn2)CC1 (single isomer, unassigned) [Example 565 Isomer A] | 100 to 1000 |
| CN(c1cccc2c1CN(c1cn[nH]c(=O)c1C(F)(F)F)C2)C1CCOCC1 [Example 282, 5-(4-(Methyl(tetrahydro-2H-pyran-4-yl)amino)isoindolin-2-yl)-4-(trifluoromethyl)pyridazin-3(2H)-one] | 100 to 1000 |
| CN(C)CCOc1ccc2c(n1)CN(c1cn[nH]c(=O)c1C(F)(F)F)C2 [Example 319, 5-(2-(2-(Dimethylamino)ethoxy)-5,7-dihydro-6H-pyrrolo[3,4-b]pyridin-6-yl)-4-(trifluoromethyl)pyridazin-3(2H)-one] | 100 to 1000 |
| CC1c2ccccc2CN1c1cn[nH]c(=O)c1Cl (stereo not shown) [Example 208, 4-Chloro-5-(1-methylisoindolin-2-yl)pyridazin-3(2H)-one] | ≥ 1000 |
| CN1CCN(C(=O)CCOC[C@H]2c3ccccc3CN2c2cn[nH]c(=O)c2C(F)(F)F)CC1 [Example 422, (R)-5-(1-((3-(4-Methylpiperazin-1-yl)-3-oxopropoxy)methyl)isoindolin-2-yl)-4-(trifluoromethyl)pyridazin-3(2H)-one] | ≥ 1000 |
| C[C@@H](COc1cn[nH]c(=O)c1C(F)(F)F)OCCC(=O)N1CCN(c2ncc(Cl)cn2)CC1 (single isomer, unassigned) [Example 543 Isomer B] | < 100 |
| O=C(COC[C@@H]1CCCN1c1cn[nH]c(=O)c1C(F)(F)F)NC1CCC(Nc2ccccn2)CC1 (single isomer, unassigned; isomer b) [Example 80 Isomer B] | 100 to 1000 |
| C=CC(=O)Nc1cccc(OC[C@@H]2CCCN2c2cn[nH]c(=O)c2C(F)(F)F)c1 [Example 86, N-(3-[[(2S)-1-[6-oxo-5-(trifluoromethyl)-1,6-dihydropyridazin-4-yl]pyrrolidin-2-yl]methoxy]phenyl)prop-2-enamide] | 100 to 1000 |
| CC[C@@H](COCCC(=O)N1CCN(c2ncc(Cl)cn2)CC1)Oc1cn[nH]c(=O)c1Br [Example 727, (S)-4-Bromo-5-((1-(3-(4-(5-chloropyrimidin-2-yl)piperazin-1-yl)-3-oxopropoxy)butan-2-yl)oxy)pyridazin-3(2H)-one] | < 100 |
| O=c1[nH]ncc(N2Cc3nccc(OCCN4CCOCC4)c3C2)c1C(F)(F)F [Example 10, 5-[4-[2-(morpholin-4-yl)ethoxy]-5H,6H,7H-pyrrolo[3,4-b]pyridin-6-yl]-4-(trifluoromethyl)-2,3-dihydropyridazin-3-one] | 100 to 1000 |
| CC[C@@H](COCCC(=O)N1CCN(c2ncc(C(F)(F)F)cn2)CC1)Oc1cn[nH]c(=O)c1C(F)(F)F [Example 37, 5-[[(2S)-1-(3-Oxo-3-[4-[5-(trifluoromethyl)pyrimidin-2-yl]piperazin-1-yl]propoxy)butan-2-yl]oxy]-4-(trifluoromethyl)-2,3-dihydropyridazin-3-one] | < 100 |
| N#Cc1ccc(N2CC3CCC2CN3C(=O)CCOC[C@@H]2CCCN2c2cn[nH]c(=O)c2C(F)(F)F)nc1 (stereo partly drawn) [Example 101, 6-[5-(3-[[(2S)-1-[6-oxo-5-(trifluoromethyl)-1,6-dihydropyridazin-4-yl]pyrrolidin-2-yl]methoxy]propanoyl)-2,5-diazabicyclo[2.2.2]octan-2-yl]pyridine-3-carbonitrile] | < 100 |
| CC(=O)N1CCC[C@H]2CN(c3cn[nH]c(=O)c3C(F)(F)F)C[C@H]21 [Example 143, 5-[(4aS,7aS)-1-acetyl-octahydro-1H-pyrrolo[3,4-b]pyridin-6-yl]-4-(trifluoromethyl)-2,3-dihydropyridazin-3-one] | ≥ 1000 |
| N#Cc1ccc(N2CCN(C(=O)CCOC[C@@H]3C[C@H](N)CN3c3cn[nH]c(=O)c3C(F)(F)F)CC2)nc1 [Example 485, 6-(4-(3-(((2S,4S)-4-Amino-1-(6-oxo-5-(trifluoromethyl)-1,6-dihydropyridazin-4-yl)pyrrolidin-2-yl)methoxy)propanoyl)piperazin-1-yl)nicotinonitrile] | < 100 |
| C[C@@H](COCCC(=O)N1CCN(c2ncc(C(F)(F)F)s2)CC1)Oc1cn[nH]c(=O)c1Br [Example 730, (S)-4-Bromo-5-((1-(3-oxo-3-(4-(5-(trifluoromethyl)thiazol-2-yl)piperazin-1-yl)propoxy)propan-2-yl)oxy)pyridazin-3(2H)-one] | 100 to 1000 |

| SMILES | IC50 [nM] |
| --- | --- |
| N#Cc1ccc(N2CCN(C(=O)CCNC[C@H]3c4ccccc4CN3c3cn[nH]c(=O)c3Cl)CC2)nc1 [Example 425, (R)-6-(4-(3-(((2-(5-Chloro-6-oxo-1,6-dihydropyridazin-4-yl)isoindolin-1-yl)methyl)amino)propanoyl)piperazin-1-yl)nicotinonitrile] | ≥ 1000 |
| O=C(C[C@H]1CC[C@H](COc2cn[nH]c(=O)c2C(F)(F)F)O1)N1CCN(c2ncc(Cl)cn2)CC1 (single isomer, unassigned) [Example 565 Isomer B] | 100 to 1000 |
| O=C(C[C@@H]1CC[C@H](COc2cn[nH]c(=O)c2Cl)O1)N1CCN(c2ncc(C(F)(F)F)cn2)CC1 [Example 575 Isomer D, 4-Chloro-5-(((2R,5S)-5-(2-oxo-2-(4-(5-(trifluoromethyl)pyrimidin-2-yl)piperazin-1-yl)ethyl)-tetrahydrofuran-2-yl)methoxy)pyridazin-3(2H)-one] | ≥ 1000 |
| C[C@H](COCCC(=O)N1CCN(c2ccc(Cl)cn2)CC1)Oc1cn[nH]c(=O)c1C(F)(F)F (single isomer, unassigned) [Example 539 Isomer D] | 100 to 1000 |
| O=c1[nH]ncc(N2Cc3ccc(OCCO)cc3C2)c1C(F)(F)F [Example 177, 5-(5-(2-Hydroxyethoxy)isoindolin-2-yl)-4-(trifluoromethyl)pyridazin-3(2H)-one] | < 100 |
| C[C@@H](COCC(O)CN1CCN(c2ncc(C(F)(F)F)cn2)CC1)Nc1cn[nH]c(=O)c1C(F)(F)F (stereo partly drawn) [Example 626, 5-(((2S)-1-(2-Hydroxy-3-(4-(5-(trifluoromethyl)pyrimidin-2-yl)piperazin-1-yl)propoxy)propan-2-yl)amino)-4-(trifluoromethyl)pyridazin-3(2H)-one] | < 100 |
| O=C(C[C@H]1CC[C@@H](COc2cn[nH]c(=O)c2C(F)(F)F)O1)N1CCN(c2ncc(C(F)(F)F)cn2)CC1 [Example 574 Isomer C, 5-(((2S,5R)-5-(2-Oxo-2-(4-(5-(trifluoromethyl)pyrimidin-2-yl)piperazin-1-yl)ethyl)-tetrahydrofuran-2-yl)methoxy)-4-(trifluoromethyl)pyridazin-3(2H)-one] | < 100 |
| N#Cc1ccc(N2CCN(CCCOC[C@@H]3CCCN3c3cn[nH]c(=O)c3C(F)(F)F)CC2)nc1 [Example 90] | < 100 |
| N#Cc1ccc(N2CCN(C(=O)CCOCCNc3cn[nH]c(=O)c3Cl)CC2)nc1 [Example 507] | < 100 |
| CN(C)CCOc1cc(F)c2c(c1)CN(c1cn[nH]c(=O)c1C(F)(F)F)C2 [Example 331, 5-(6-(2-(Dimethylamino)ethoxy)-4-fluoroisoindolin-2-yl)-4-(trifluoromethyl)pyridazin-3(2H)-one] | < 100 |
| N#Cc1ccc(N2CC3CN(C(=O)CCOC[C@@H]4CCCN4c4cn[nH]c(=O)c4C(F)(F)F)CC3C2)nc1 (stereo in doubt) [Example 113, (S)-6-[5-(3-[[1-[6-oxo-5-(trifluoromethyl)-1,6-dihydropyridazin-4-yl]pyrrolidin-2-yl]methoxy]propanoyl)-octahydropyrrolo[3,4-c]pyrrol-2-yl]pyridine-3-carbonitrile] | < 100 |
| COC[C@H](COCCC(=O)N1CCN(c2ncc(C(F)(F)F)cn2)CC1)Oc1cn[nH]c(=O)c1C(F)(F)F (single isomer, unassigned) [Example 570 Isomer B] | 100 to 1000 |
| O=C(CCOC[C@H](CCO)Oc1cn[nH]c(=O)c1C(F)(F)F)N1CCN(c2ncc(Cl)cn2)CC1 [Example 705, (S)-5-((1-(3-(4-(5-Chloropyrimidin-2-yl)piperazin-1-yl)-3-oxopropoxy)-4-hydroxybutan-2-yl)oxy)-4-(trifluoromethyl)pyridazin-3(2H)-one] | 100 to 1000 |
| N#Cc1ccc(OC2CCC(NC(=O)CCOC[C@@H]3CCCN3c3cn[nH]c(=O)c3C(F)(F)F)CC2)nc1 (stereo partly drawn) [Example 99, N-(4-[(5-cyanopyridin-2-yl)oxy]cyclohexyl]-3-[[(2S)-1-[6-oxo-5-(trifluoromethyl)-1,6-dihydropyridazin-4-yl]pyrrolidin-2-yl]methoxy]propanamide] | 100 to 1000 |
| O=C(CCOC[C@H](CO)Nc1cn[nH]c(=O)c1C(F)(F)F)N1CCN(c2ncc(C(F)(F)F)cn2)CC1 [Example 603, 5-[[(2S)-1-Hydroxy-3-(3-oxo-3-[4-[5-(trifluoromethyl)pyrimidin-2-yl]piperazin-1-yl]propoxy)propan-2-yl]amino]-4-(trifluoromethyl)-2,3-dihydropyridazin-3-one] | < 100 |
| C[C@H]1CCN(c2cn[nH]c(=O)c2C(F)(F)F)[C@H]1COc1cccc(C(=O)N2CCN(c3ccc(C#N)cn3)CC2)c1 [Example 459, 6-(4-(3-(((2R,3S)-3-methyl-1-(6-oxo-5-(trifluoromethyl)-1,6-dihydropyridazin-4-yl)pyrrolidin-2-yl)methoxy)benzoyl)piperazin-1-yl)nicotinonitrile] | 100 to 1000 |
| CC(=O)N1CCCC1COc1cc2c(cc1F)CN(c1cn[nH]c(=O)c1C(F)(F)F)C2 (stereo not shown) [Example 50, 5-[5-[(1-acetylpyrrolidin-2-yl)methoxy]-6-fluoro-2,3-dihydro-1H-isoindol-2-yl]-4-(trifluoromethyl)-2,3-dihydropyridazin-3-one] | < 100 |
